Laboratory results from patent publication US20250367166A1, “NEXT GENERATION DIPROVOCIMS THAT ACTIVATE THE INNATE AND ADAPTIVE IMMUNE RESPONSE” (The Scripps Research Institute, priority 2022, published 2025).
Read-outs that look alike come from different tables or passages of the source.

Key:
TLR1/TLR2 [1] = molecular target: TLR1/TLR2 (Homo sapiens, UniProt O60603+Q15399); assay: TNF-α release from PMA-differentiated human THP-1 cells (ELISA); settings: for Emax: THP-1, 4 h, read-out: Efficacy (magnitude) of response versus diprovocim-1 (100%), THP-1; for EC50: read-out: EC50 (nM) (THP-1): EC50 TNF-α release from human THP-1 cells;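 as to all read-outs here: cells exposed to graded compound concentrations for 4 h, TNF-α quantified in supernatant, LPS as positive and DMSO as negative control, values are duplicate means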
TLR1/TLR2 [2] = molecular target: TLR1/TLR2 (Mus musculus, UniProt Q9EPQ1+Q9QUN7); assay: TNF-α release from thioglycolate-elicited mouse peritoneal macrophages (ELISA); settings: for Emax: 4 h, read-out: Efficacy (magnitude) of response versus diprovocim-1 (100%), mouse macrophages
Method: Thioglycolate-elicited macrophages were recovered 4 days after i.p. injection of 2 mL BBL thioglycolate medium, brewer modified (4%; BD Biosciences) by peritoneal lavage with 5 mL phosphate buffered saline (PBS). […] Cells were seeded onto 96-well plates at 1×10^3 cells per well and treated with systematically varied concentrations of the candidate compounds (dissolved in DMSO, and final assay DMSO concentrations (0.5%) were kept constant in all experiments) for 4 h. Ultra-pure LPS (dissolved in H2O, Enzo Life Sciences) was assessed alongside the compounds as a positive control and DMSO treated controls. […] Mouse TNF-α in the supernatants was measured by ELISA kits according to the manufacturer's instructions (eBioscience). EC50's were calculated by Graphpad Prism. All data is mean of duplicates and SD is within ±10% of mean. Mouse cells were from wild type C57BL/6J mice.

[3] = read-out: EC50 (nM) (mouse): EC50 TNF-α release from mouse macrophages, Table 6
[4] = read-out: EC50 (nM) (mouse): EC50 TNF-α release from mouse macrophages, Table 5
[5] = read-out: EC50 (nM) (mouse): EC50 TNF-α release from mouse macrophages, Table 1

Sequence of TLR1/TLR2 (Mus musculus, UniProt Q9EPQ1+Q9QUN7) (Q9EPQ1 26-795): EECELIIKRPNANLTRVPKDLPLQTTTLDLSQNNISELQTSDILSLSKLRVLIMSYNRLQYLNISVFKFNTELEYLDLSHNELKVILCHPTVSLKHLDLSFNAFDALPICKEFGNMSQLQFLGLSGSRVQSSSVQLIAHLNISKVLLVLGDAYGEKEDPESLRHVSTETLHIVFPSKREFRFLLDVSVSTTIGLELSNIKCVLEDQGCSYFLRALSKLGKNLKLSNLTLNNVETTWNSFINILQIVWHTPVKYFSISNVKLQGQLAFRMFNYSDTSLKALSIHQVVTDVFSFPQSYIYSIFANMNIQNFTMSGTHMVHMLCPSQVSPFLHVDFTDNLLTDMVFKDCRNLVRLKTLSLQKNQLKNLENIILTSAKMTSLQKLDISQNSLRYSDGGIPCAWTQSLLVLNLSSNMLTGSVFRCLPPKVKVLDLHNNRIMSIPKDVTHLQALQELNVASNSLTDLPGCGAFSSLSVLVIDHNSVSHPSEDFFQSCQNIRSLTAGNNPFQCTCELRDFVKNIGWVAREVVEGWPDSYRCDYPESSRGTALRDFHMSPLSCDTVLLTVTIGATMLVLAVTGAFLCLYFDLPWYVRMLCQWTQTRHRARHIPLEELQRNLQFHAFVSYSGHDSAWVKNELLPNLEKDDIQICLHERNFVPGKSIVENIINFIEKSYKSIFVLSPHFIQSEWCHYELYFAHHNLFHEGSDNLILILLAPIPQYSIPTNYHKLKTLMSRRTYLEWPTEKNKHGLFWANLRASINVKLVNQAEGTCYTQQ
Sequence of TLR1/TLR2 (Mus musculus, UniProt Q9EPQ1+Q9QUN7) (Q9QUN7 25-784): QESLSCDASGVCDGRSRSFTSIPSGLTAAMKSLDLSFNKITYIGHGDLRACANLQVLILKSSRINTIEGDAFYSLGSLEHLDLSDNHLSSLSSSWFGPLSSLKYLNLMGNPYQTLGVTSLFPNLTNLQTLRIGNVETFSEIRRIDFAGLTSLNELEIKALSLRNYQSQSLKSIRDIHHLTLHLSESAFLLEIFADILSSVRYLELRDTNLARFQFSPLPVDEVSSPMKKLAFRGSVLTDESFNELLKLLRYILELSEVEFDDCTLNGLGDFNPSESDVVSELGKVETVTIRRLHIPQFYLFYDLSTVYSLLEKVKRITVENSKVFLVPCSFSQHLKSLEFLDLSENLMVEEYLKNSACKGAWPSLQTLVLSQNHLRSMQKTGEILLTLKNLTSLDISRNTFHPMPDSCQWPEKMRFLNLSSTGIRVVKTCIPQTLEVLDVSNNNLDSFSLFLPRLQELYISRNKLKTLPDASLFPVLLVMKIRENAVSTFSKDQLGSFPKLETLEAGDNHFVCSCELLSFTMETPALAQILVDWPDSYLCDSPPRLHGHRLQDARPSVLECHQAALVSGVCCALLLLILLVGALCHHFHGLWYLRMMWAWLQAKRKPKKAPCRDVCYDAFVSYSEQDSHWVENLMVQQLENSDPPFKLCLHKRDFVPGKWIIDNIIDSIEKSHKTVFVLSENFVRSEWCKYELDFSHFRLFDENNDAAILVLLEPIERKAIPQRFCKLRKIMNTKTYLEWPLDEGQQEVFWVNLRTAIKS
Sequence of TLR1/TLR2 (Homo sapiens, UniProt O60603+Q15399) (Q15399 25-786): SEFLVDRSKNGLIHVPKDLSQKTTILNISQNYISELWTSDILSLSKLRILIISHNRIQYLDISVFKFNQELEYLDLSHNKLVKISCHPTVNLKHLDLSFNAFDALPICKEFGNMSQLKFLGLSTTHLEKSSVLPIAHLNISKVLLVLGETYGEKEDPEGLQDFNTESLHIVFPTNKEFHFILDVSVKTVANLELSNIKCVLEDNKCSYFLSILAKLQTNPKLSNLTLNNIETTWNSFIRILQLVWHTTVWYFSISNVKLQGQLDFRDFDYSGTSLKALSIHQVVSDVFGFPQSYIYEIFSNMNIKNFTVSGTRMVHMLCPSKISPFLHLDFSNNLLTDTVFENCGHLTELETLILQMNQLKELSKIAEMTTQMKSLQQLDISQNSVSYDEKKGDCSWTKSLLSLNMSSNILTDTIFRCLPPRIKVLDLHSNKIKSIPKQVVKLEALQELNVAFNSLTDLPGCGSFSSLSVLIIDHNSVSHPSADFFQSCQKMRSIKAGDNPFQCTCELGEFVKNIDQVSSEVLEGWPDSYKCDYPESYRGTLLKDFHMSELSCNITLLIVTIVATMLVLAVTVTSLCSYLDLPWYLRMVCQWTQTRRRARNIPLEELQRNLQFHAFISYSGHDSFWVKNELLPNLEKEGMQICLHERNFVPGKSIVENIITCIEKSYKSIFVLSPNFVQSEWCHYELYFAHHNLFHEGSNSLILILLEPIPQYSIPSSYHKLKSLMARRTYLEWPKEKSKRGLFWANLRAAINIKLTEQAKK
Sequence of TLR1/TLR2 (Homo sapiens, UniProt O60603+Q15399) (O60603 21-784): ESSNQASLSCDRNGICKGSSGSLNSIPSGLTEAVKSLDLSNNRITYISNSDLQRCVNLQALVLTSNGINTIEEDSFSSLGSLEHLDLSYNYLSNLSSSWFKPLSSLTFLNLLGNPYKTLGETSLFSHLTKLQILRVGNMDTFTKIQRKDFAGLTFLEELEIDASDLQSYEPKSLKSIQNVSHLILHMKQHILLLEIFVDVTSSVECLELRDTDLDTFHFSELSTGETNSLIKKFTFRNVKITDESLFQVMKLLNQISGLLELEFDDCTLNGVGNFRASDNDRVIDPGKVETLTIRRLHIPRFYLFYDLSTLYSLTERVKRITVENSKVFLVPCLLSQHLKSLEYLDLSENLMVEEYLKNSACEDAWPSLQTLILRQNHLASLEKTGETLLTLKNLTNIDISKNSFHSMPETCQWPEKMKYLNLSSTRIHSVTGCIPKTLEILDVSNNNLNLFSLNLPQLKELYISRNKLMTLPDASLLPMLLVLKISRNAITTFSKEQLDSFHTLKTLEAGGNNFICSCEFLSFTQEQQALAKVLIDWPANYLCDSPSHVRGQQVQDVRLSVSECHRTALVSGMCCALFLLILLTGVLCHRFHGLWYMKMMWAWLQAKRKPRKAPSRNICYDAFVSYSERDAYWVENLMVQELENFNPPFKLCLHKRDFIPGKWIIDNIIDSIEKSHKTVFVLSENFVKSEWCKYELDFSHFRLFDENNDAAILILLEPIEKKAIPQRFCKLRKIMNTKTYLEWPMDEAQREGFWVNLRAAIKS

Row | SMILES | Emax (TLR1/TLR2 [1]) | EC50 (TLR1/TLR2 [1]; Table 6) | Emax (TLR1/TLR2 [2]) | EC50 (TLR1/TLR2 [2]; [3]) | EC50 (TLR1/TLR2 [1]; Table 1) | EC50 (TLR1/TLR2 [2]; [5]) | also measured
1 | CC(C)(C)OC(=O)/C=C/C(=O)NCC(=O)OCCCCCCCCCCCCNC(=O)[C@@H]1CN(C(=O)c2ccc(C(=O)N3C[C@@H](C(=O)N[C@H]4C[C@@H]4c4ccccc4)[C@H](C(=O)N[C@H]4C[C@@H]4c4ccccc4)C3)cc2)C[C@H]1C(=O)N[C@H]1C[C@@H]1c1ccccc1 [Compound 81, (E)-tert-Butyl 4-((2-((12-((3S,4S)-1-(4-((3S,4S)-3,4-bis(((1S,2R)-2-phenylcyclopropyl)carbamoyl)-pyrrolidine-1-carbonyl)benzoyl)-4-(((1S,2R)-2-phenylcyclopropyl)carbamoyl)pyrrolidine-3-carboxamido)dodecyl)oxy)-2-oxoethyl)amino)-4-oxobut-2-enoate] | 90% | 2 nM | 110% | 62 nM |  |  | 
2 | CSCC[C@H](NC(=O)OC(C)(C)C)C(=O)OCCCCCCCCCCCCNC(=O)[C@@H]1CN(C(=O)c2ccc(C(=O)N3C[C@@H](C(=O)N[C@H]4C[C@@H]4c4ccccc4)[C@H](C(=O)N[C@H]4C[C@@H]4c4ccccc4)C3)cc2)C[C@H]1C(=O)N[C@H]1C[C@@H]1c1ccccc1 [Compound 67, (S)-12-((3S,4S)-1-(4-((3S,4S)-3,4-Bis(((1S,2R)-2-phenylcyclopropyl)carbamoyl)pyrrolidine-1-carbonyl)-benzoyl)-4-(((1S,2R)-2-phenylcyclopropyl)carbamoyl)-pyrrolidine-3-carboxamido)-dodecyl 2-((tert-butoxy-carbonyl)amino)-4-(methylthio)butanoate] | 100% |  | 150% |  |  |  | EC50 (TLR1/TLR2 [1]; Table 5): 2.8 nM; EC50 (TLR1/TLR2 [2]; [4]): 44 nM
3 | O=C(NCCCCCCCCO)[C@@H]1CN(C(=O)c2ccc(C(=O)N3C[C@@H](C(=O)N[C@H]4C[C@@H]4c4ccccc4)[C@H](C(=O)N[C@H]4C[C@@H]4c4ccccc4)C3)cc2)C[C@H]1C(=O)N[C@H]1C[C@@H]1c1ccccc1 [Compound 9, (3S,4S)-1-(4-((3S,4S)-3,4-Bis(((1S,2R)-2-phenyl-cyclopropyl)carbamoyl)pyrrolidine-1-carbonyl)-benzoyl)-N^3—(8-hydroxyoctyl)-N^4-((1S,2R)-2-phenyl-cyclopropyl)pyrrolidine-3,4-dicarboxamide] |  |  |  |  | 4.3 nM | 93 nM | 
4 | O=C(NCCOCCOCCOCCO)[C@@H]1CN(C(=O)c2ccc(C(=O)N3C[C@@H](C(=O)N[C@H]4C[C@@H]4c4ccccc4)[C@H](C(=O)N[C@H]4C[C@@H]4c4ccccc4)C3)cc2)C[C@H]1C(=O)N[C@H]1C[C@@H]1c1ccccc1 [Compound 30, (3S,4S)-1-(4-((3S,4S)-3,4-Bis(((1S,2R)-2-phenyl-cyclopropyl)carbamoyl)pyrrolidine-1-carbonyl)-benzoyl)-N^3-(2-(2-(2-(2-hydroxyethoxy)ethoxy)ethoxy)-ethyl)-N^4-((1S,2R)-2-phenylcyclopropyl)-pyrrolidine-3,4-dicarboxamide] |  |  |  |  |  |  | EC50 (TLR1/TLR2 [1]; Table 2): 2000 nM; EC50 (TLR1/TLR2 [2]): > 5000 nM
5 | CC(C)(C)OC(=O)N1CCC[C@H]1C(=O)OCCCCCCCCCCCCNC(=O)[C@@H]1CN(C(=O)c2ccc(C(=O)N3C[C@@H](C(=O)N[C@H]4C[C@@H]4c4ccccc4)[C@H](C(=O)N[C@H]4C[C@@H]4c4ccccc4)C3)cc2)C[C@H]1C(=O)N[C@H]1C[C@@H]1c1ccccc1 [Compound 60, (S)-2-(12-((3S,4S)-1-(4-((3S,4S)-3,4-Bis(((1S,2R)-2-phenylcyclopropyl)carbamoyl)pyrrolidine-1-carbonyl)-benzoyl)-4-(((1S,2R)-2-phenylcyclopropyl)carbamoyl)-pyrrolidine-3-carboxamido)-dodecyl) 1-tert-butyl pyrrolidine-1,2-dicarboxylate] | 90% |  | 100% |  |  |  | EC50 (TLR1/TLR2 [1]; Table 5): 0.94 nM; EC50 (TLR1/TLR2 [2]; [4]): 9.2 nM
6 | COC(=O)CNC(=O)OCCCCCCCCCCCCNC(=O)[C@@H]1CN(C(=O)c2ccc(C(=O)N3C[C@@H](C(=O)N[C@H]4C[C@@H]4c4ccccc4)[C@H](C(=O)N[C@H]4C[C@@H]4c4ccccc4)C3)cc2)C[C@H]1C(=O)N[C@H]1C[C@@H]1c1ccccc1 [Compound 50, Methyl 2-((((12-((3S,4S)-1-(4-((3S,4S)-3,4-bis-(((1S,2R)-2-phenylcyclopropyl)carbamoyl)pyrrolidine-1-carbonyl)benzoyl)-4-(((1S,2R)-2-phenylcyclopropyl)-carbamoyl)pyrrolidine-3-carboxamido)dodecyl)oxy)-carbonyl)amino)acetate] | 90% |  | 90% |  |  |  | EC50 (TLR1/TLR2 [1]; Table 3): 0.2 nM; EC50 (TLR1/TLR2 [2]; read-out: EC50 (nM) (mouse): EC50 TNF-α release from mouse macrophages, Table 3): 6 nM
7 | O=C(O)c1ccc(C(=O)OCCCCCCCCCCCCNC(=O)[C@@H]2CN(C(=O)c3ccc(C(=O)N4C[C@@H](C(=O)N[C@H]5C[C@@H]5c5ccccc5)[C@H](C(=O)N[C@H]5C[C@@H]5c5ccccc5)C4)cc3)C[C@H]2C(=O)N[C@H]2C[C@@H]2c2ccccc2)cc1 [Compound 78, 4-(((12-((3S,4S)-1-(4-((3S,4S)-3,4-Bis(((1S,2R)-2-phenylcyclopropyl)carbamoyl)pyrrolidine-1-carbonyl)benzoyl)-4-(((1S,2R)-2-phenylcyclopropyl)-carbamoyl)pyrrolidine-3-carboxamido)-dodecyl)oxy)carbonyl)benzoic acid] | 100% | 0.69 nM | 120% | 2.1 nM |  |  | 
8 | O=C(O)CCOCCOCCOCCNC(=O)[C@@H]1CN(C(=O)c2ccc(C(=O)N3C[C@@H](C(=O)N[C@H]4C[C@@H]4c4ccccc4)[C@H](C(=O)N[C@H]4C[C@@H]4c4ccccc4)C3)cc2)C[C@H]1C(=O)N[C@H]1C[C@@H]1c1ccccc1 [Compound 31, 1-((3S,4S)-1-(4-((3S,4S)-3,4-Bis(((1S,2R)-2-phenylcyclopropyl)carbamoyl)pyrrolidine-1-carbonyl)benzoyl)-4-(((1S,2R)-2-phenylcyclopropyl)-carbamoyl)pyrrolidin-3-yl)-1-oxo-5,8,11-trioxa-2-azatetradecan-14-oic acid] |  |  |  |  |  |  | EC50 (TLR1/TLR2 [1]; Table 2): 100 nM; EC50 (TLR1/TLR2 [2]): > 5000 nM
9 | CC(C)(C)OC(=O)c1ccc(C(=O)NCC(=O)OCCCCCCCCCCCCNC(=O)[C@@H]2CN(C(=O)c3ccc(C(=O)N4C[C@@H](C(=O)N[C@H]5C[C@@H]5c5ccccc5)[C@H](C(=O)N[C@H]5C[C@@H]5c5ccccc5)C4)cc3)C[C@H]2C(=O)N[C@H]2C[C@@H]2c2ccccc2)cc1 [Compound 79, tert-Butyl 4-((2-((12-((3S,4S)-1-(4-((3S,4S)-3,4-bis-(((1S,2R)-2-phenylcyclopropyl)carbamoyl)-pyrrolidine-1-carbonyl)benzoyl)-4-(((1S,2R)-2-phenylcyclopropyl)-carbamoyl)pyrrolidine-3-carboxamido)dodecyl)oxy)-2-oxoethyl)carbamoyl)benzoate] | 100% | 6.6 nM | 130% | 465 nM |  |  | 

Continued, in another order:

Row | Emax (TLR1/TLR2 [1]) | EC50 (TLR1/TLR2 [1]; Table 6) | Emax (TLR1/TLR2 [2]) | EC50 (TLR1/TLR2 [2]; [3]) | EC50 (TLR1/TLR2 [1]; Table 1) | EC50 (TLR1/TLR2 [2]; [5]) | SMILES | also measured
10 | 100% | 2.9 nM | 50% | 49 nM |  |  | O=C(O)c1ccc(C(=O)NCCOCCCCCCCCCCCCNC(=O)[C@@H]2CN(C(=O)c3ccc(C(=O)N4C[C@@H](C(=O)N[C@H]5C[C@@H]5c5ccccc5)[C@H](C(=O)N[C@H]5C[C@@H]5c5ccccc5)C4)cc3)C[C@H]2C(=O)N[C@H]2C[C@@H]2c2ccccc2)cc1 [Compound 86, 4-((2-((12-((3S,4S)-1-(4-((3S,4S)-3,4-Bis(((1S,2R)-2-phenylcyclopropyl)carbamoyl)pyrrolidine-1-carbonyl)benzoyl)-4-(((1S,2R)-2-phenylcyclopropyl)-carbamoyl)pyrrolidine-3-carboxamido)dodecyl)-oxy)ethyl)carbamoyl)benzoic acid] | 
11 |  |  |  |  | 2 nM | 30 nM | O=C(NCc1ccc(F)cc1)[C@@H]1CN(C(=O)c2ccc(C(=O)N3C[C@@H](C(=O)N[C@H]4C[C@@H]4c4ccccc4)[C@H](C(=O)N[C@H]4C[C@@H]4c4ccccc4)C3)cc2)C[C@H]1C(=O)N[C@H]1C[C@@H]1c1ccccc1 [Compound 24, (3S,4S)-1-(4-((3S,4S)-3,4-Bis(((1S,2R)-2-phenylcyclo-propyl)carbamoyl)pyrrolidine-1-carbonyl)-benzoyl)-N^3-(4-fluorobenzyl)-N^4-((1S,2R)-2-phenylcyclopropyl)-pyrrolidine-3,4-dicarboxamide] | 
12 | 30% |  | 50% |  | 0.07 nM | 0.6 nM | [N-]=[N+]=NCCCCCCCCCCCCNC(=O)[C@@H]1CN(C(=O)c2ccc(C(=O)N3C[C@@H](C(=O)N[C@H]4C[C@@H]4c4ccccc4)[C@H](C(=O)N[C@H]4C[C@@H]4c4ccccc4)C3)cc2)C[C@H]1C(=O)N[C@H]1C[C@@H]1c1ccccc1 [Compound 20, (3S,4S)—N^3-(12-Azidododecyl)-1-(4-((3S,4S)-3,4-bis-(((1S,2R)-2-phenylcyclopropyl)carbamoyl)-pyrrolidine-1-carbonyl)benzoyl)-N^4-((1S,2R)-2-phenylcyclopropyl)-pyrrolidine-3,4-dicarboxamide] | 
13 | 120% |  | 150% |  | 1 nM | 60 nM | CNC(=O)CCCCCCCCCCCNC(=O)[C@@H]1CN(C(=O)c2ccc(C(=O)N3C[C@@H](C(=O)N[C@H]4C[C@@H]4c4ccccc4)[C@H](C(=O)N[C@H]4C[C@@H]4c4ccccc4)C3)cc2)C[C@H]1C(=O)N[C@H]1C[C@@H]1c1ccccc1 [Compound 13, (3S,4S)-1-(4-((3S,4S)-3,4-Bis(((1S,2R)-2-phenylcyclo-propyl)carbamoyl)pyrrolidine-1-carbonyl)-benzoyl)-N^3-(12-(methylamino)-12-oxododecyl)-N^4-((1S,2R)-2-phenyl-cyclopropyl)pyrrolidine-3,4-dicarboxamide] | 
